# Reference: US20240287079A1, “6-AMINOPYRAZOLOPYRIMIDINE COMPOUND AND PHARMACEUTICAL USE THEREOF” (Japan Tobacco Inc., priority 2021, published 2024)
# Target: NLRP3 inflammasome (Homo sapiens (Human), UniProt Q96P20)
# Assay: Evaluation of NLRP3 inflammasome inhibitory activity (inhibition of IL-1β production in LPS/Nigericin-stimulated THP1-Null cells)
# Format: cell-based
# Details: IL-1β production in THP1-Null cells, PMA, LPS 1 μg/mL, Nigericin 7.5 μmol/L, AlphaLISA
# Experimental: The NLRP3 inflammasome inhibitory activity of test compounds were evaluated on the basis of the inhibitory activity of the IL-1β production in THP1-Null cells (Product Number: thp-null, InvivoGen). […] The supernatant of the culture was removed, and thereto was added media for assay (25 μL/well) containing 1 μg/mL Lipopolysaccharides (Product Number: L2654, Sigma-Aldrich (registered trademark)). […] The supernatant of the culture was removed. […] A solution containing a test compound (20 μL/well) was added to test compound-setting wells. […] The supernatant of the culture was cryonically stored (set at −20° C.) until measurement of IL-1β.
# The amount of IL-1β in the culture supernatant was quantitated with AlphaLISA(registered trademark) Human IL-1β Detection Kit (Product Number: AL220C, Perkin Elmer). Fluorescence intensity was measured with a microplate reader EnSpier (Model number: 2300-00J, Perkin Elmer) or EnSight(Model number: HH34000000, Perkin Elmer) according to procedure manuals attached thereto. Inhibition rates of the test compound-setting wells were calculated on the basis of 100% for the blank-setting wells and 0% for the control-setting wells.
# NLRP3 inflammasome, sequence (Q96P20 whole entry): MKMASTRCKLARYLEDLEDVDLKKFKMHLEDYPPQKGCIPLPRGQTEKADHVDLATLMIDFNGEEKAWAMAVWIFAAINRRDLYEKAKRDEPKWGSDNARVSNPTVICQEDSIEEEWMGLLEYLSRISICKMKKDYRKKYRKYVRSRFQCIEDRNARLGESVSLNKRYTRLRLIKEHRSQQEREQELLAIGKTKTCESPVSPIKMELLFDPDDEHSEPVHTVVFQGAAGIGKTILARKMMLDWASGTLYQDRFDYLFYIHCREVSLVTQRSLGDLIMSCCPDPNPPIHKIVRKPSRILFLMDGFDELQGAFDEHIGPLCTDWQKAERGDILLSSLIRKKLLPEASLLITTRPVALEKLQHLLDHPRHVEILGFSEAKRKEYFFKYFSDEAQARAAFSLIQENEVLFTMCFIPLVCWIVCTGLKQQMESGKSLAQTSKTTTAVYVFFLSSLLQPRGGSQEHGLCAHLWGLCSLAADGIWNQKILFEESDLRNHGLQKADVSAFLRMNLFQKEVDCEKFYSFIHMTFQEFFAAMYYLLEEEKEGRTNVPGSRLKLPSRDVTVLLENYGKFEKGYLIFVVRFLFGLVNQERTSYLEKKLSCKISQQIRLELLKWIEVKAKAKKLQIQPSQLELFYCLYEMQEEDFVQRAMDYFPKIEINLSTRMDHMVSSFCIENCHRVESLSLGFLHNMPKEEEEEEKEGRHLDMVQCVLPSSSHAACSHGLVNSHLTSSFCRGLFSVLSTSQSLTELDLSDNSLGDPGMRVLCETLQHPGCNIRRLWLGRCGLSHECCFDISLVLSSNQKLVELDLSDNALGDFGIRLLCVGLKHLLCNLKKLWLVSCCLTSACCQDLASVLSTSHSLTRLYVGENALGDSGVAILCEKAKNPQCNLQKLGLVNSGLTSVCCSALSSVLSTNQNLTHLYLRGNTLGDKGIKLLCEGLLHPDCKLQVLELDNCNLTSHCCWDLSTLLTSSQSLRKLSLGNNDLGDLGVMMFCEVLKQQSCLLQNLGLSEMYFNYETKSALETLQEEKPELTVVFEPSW
row,SMILES,IC50 [nM]
1,Cc1ccccc1-n1cc2c(=O)[nH]c(N3CCC3(C)C)nc2n1 [Example 39],7100
2,Cc1ccc(-n2cc3c(=O)[nH]c(N4CCCC4)nc3n2)cc1 [Example 40],770
3,COC[C@H]1CCCN1c1nc2nn(-c3ccccc3C)cc2c(=O)[nH]1 [Example 41],4100
4,COC[C@@H]1CCCN1c1nc2nn(-c3ccccc3C)cc2c(=O)[nH]1 [Example 42],4200
5,Cc1cccc(-n2cc3c(=O)[nH]c(N4CCCC4)nc3n2)c1 [Example 43],3400
6,Cc1ccc(-n2cc3c(=O)[nH]c(N4CCCC4)nc3n2)c(C)c1 [Example 45],70
7,Cc1ccc(C)c(-n2cc3c(=O)[nH]c(N4CCCC4)nc3n2)c1 [Example 46],290
8,Cc1cccc(-n2cc3c(=O)[nH]c(N4CCCC4)nc3n2)c1C [Example 47],230
9,O=c1[nH]c(N2CCCC2)nc2nn(-c3ccc(C(F)(F)F)cc3)cc12 [Example 49],340
10,COC1CN(c2nc3nn(-c4c(C)cccc4C)cc3c(=O)[nH]2)C1 [Example 50],1200
11,Cc1cccc(C)c1-n1cc2c(=O)[nH]c(N3CC(OCC(F)(F)F)C3)nc2n1 [Example 51],2200
12,Cc1ccc(-n2cc3c(=O)[nH]c(N4CCCC4)nc3n2)cc1C [Example 52],2100
13,Cc1cccc(C)c1-n1cc2c(=O)[nH]c(N3CC(C(F)(F)F)C3)nc2n1 [Example 53],750
14,Cc1ccc(-n2nc3nc(N4CCCC4)[nH]c(=O)c3c2C)c(C)c1 [Example 55],230
15,Cc1ccc(-n2cc3c(=O)[nH]c(N4CCOCC4)nc3n2)c(C)c1 [Example 58],120
16,COC1CN(c2nc3nn(-c4ccc(C)cc4C)cc3c(=O)[nH]2)C1 [Example 59],370
17,COCCNc1nc2nn(-c3ccc(C)cc3C)cc2c(=O)[nH]1 [Example 60],240
18,CCCCNc1nc2nn(-c3ccccc3C)cc2c(=O)[nH]1 [Example 61],680
19,Cc1cc(Br)ccc1-n1cc2c(=O)[nH]c(N3CCCC3)nc2n1 [Example 62],9.1
20,Cc1cc(C)c(-n2cc3c(=O)[nH]c(N4CCCC4)nc3n2)c(C)c1 [Example 63],17
21,Cc1cc(C)cc(-n2cc3c(=O)[nH]c(N4CCCC4)nc3n2)c1 [Example 64],290
22,CNc1nc2nn(-c3ccc(C)cc3C)cc2c(=O)[nH]1 [Example 65],80
23,CC(=O)N(C)c1nc2nn(-c3ccc(C)cc3C)cc2c(=O)[nH]1 [Example 66],4300
24,Cc1cc(C2=CCCCC2)ccc1-n1cc2c(=O)[nH]c(N3CCCC3)nc2n1 [Example 67],2300

row,SMILES,IC50 [nM]
1,O=c1[nH]c(N2CCCC2)nc2nn(-c3cccc4ccccc34)cc12 [Example 68],1200
2,Cc1cc(Br)ccc1-n1cc2c(=O)[nH]c(N3CCOCC3)nc2n1 [Example 69],24
3,Cc1cc(C#N)ccc1-n1cc2c(=O)[nH]c(N3CCCC3)nc2n1 [Example 71],1200
4,CC(=O)N1CCN(c2nc3nn(-c4ccc(Br)cc4C)cc3c(=O)[nH]2)CC1 [Example 73],8.2
5,Cc1cc(Br)ccc1-n1cc2c(=O)[nH]c(NCc3ccccc3)nc2n1 [Example 74],25
6,Cc1cc(Br)ccc1-n1cc2c(=O)[nH]c(N3Cc4ccccc4C3)nc2n1 [Example 75],14
7,Cc1cc(Br)ccc1-n1cc2c(=O)[nH]c(N3CC(F)(F)C3)nc2n1 [Example 76],4.8
8,Cc1cc(Br)cnc1-n1cc2c(=O)[nH]c(N3CCCC3)nc2n1 [Example 77],49
9,Cc1cc(Br)ccc1-n1cc2c(=O)[nH]c(N3CCNC(=O)C3)nc2n1 [Example 78],28
10,Cc1cc(Br)ccc1-n1cc2c(=O)[nH]c(N3CCS(=O)(=O)CC3)nc2n1 [Example 79],5.9
11,CNc1nc2nn(-c3ccc(C)cc3C)cc2c(=O)n1C [Example 80],570
12,C=C(C)c1ccc(-n2cc3c(=O)[nH]c(N4CCCC4)nc3n2)c(C)c1 [Example 81],11
13,Cc1cc(C2CC2)ccc1-n1cc2c(=O)[nH]c(N3CCCC3)nc2n1 [Example 82],4.1
14,Cc1cc(C(C)C)ccc1-n1cc2c(=O)[nH]c(N3CCCC3)nc2n1 [Example 83],8.4
15,Cc1ccc(-n2cc3c(=O)[nH]c(N4CCN(C)CC4)nc3n2)c(C)c1 [Example 84],95
16,Cc1ccc(-n2cc3c(=O)[nH]c(N4CC(F)(F)C(F)(F)C4)nc3n2)c(C)c1 [Example 85],24
17,O=c1[nH]c(N2CCCC2)nc2nn(-c3ccc(C(F)(F)F)cc3Cl)cc12 [Example 86],2.9
18,Cc1ccc(-n2cc3c(=O)[nH]c(N4CCCC4)nc3n2)c(Cl)c1 [Example 87],5.1
19,"Cc1cc(Br)ccc1-n1cc2c(=O)n(C)c(N3CCOCC3)nc2n1 [Example 88, 2-(4-bromo-2-methylphenyl)-5-methyl-6-morpholino-2,5-dihydro-4H-pyrazolo[3,4-d]pyrimidin-4-one]",39
20,Cc1cc(Br)ccc1-n1cc2c(=O)[nH]c(N3CCN(S(C)(=O)=O)CC3)nc2n1 [Example 91],6.7
21,Cc1cc(C)c(-n2cc3c(=O)[nH]c(N4CC(F)(F)C4)nc3n2)c(C)c1 [Example 92],11
22,Cc1cc(Cl)ccc1-n1cc2c(=O)[nH]c(N3CCCC3)nc2n1 [Example 95],5.2
23,Cc1cc(C)c(-n2cc3c(=O)[nH]c(N4CCOCC4)nc3n2)c(C)c1 [Example 96],14
24,O=c1[nH]c(N2CCCC2)nc2nn(-c3ccc(Cl)cc3F)cc12 [Example 97],27

row,SMILES,IC50 [nM]
1,"Cc1cc(C(F)(F)F)ncc1-n1cc2c(=O)[nH]c(N3CCOCC3)nc2n1 [Example 98, 2-(4-methyl-6-(trifluoromethyl)pyridin-3-yl)-6-morpholino-2,5-dihydro-4H-pyrazolo[3,4-d]pyrimidin-4-one]",54
2,Cc1cc(C(F)(F)F)ncc1-n1cc2c(=O)[nH]c(N3CC(F)(F)C3)nc2n1 [Example 99],82
3,Cc1cc(C)c(-n2cc3c(=O)[nH]c(N4CCCOCC4)nc3n2)c(C)c1 [Example 100],20
4,Cc1cc(C)c(-n2cc3c(=O)[nH]c(N4CCN(C(=O)OC(C)(C)C)CC4)nc3n2)c(C)c1 [Example 101],5.6
5,Cc1cc(C)c(-n2cc3c(=O)[nH]c(N4CCNCC4)nc3n2)c(C)c1 [Example 102],130
6,Cc1cc(C)c(-n2cc3c(=O)[nH]c(N4CCN(S(=O)(=O)C5CC5)CC4)nc3n2)c(C)c1 [Example 103],6.5
7,O=c1[nH]c(N2CCOCC2)nc2nn(-c3ccc(Br)cc3CO)cc12 [Example 104],140
8,Cc1cc(C)c(-n2cc3c(=O)[nH]c(N4CCC(O)CC4)nc3n2)c(C)c1 [Example 105],64
9,COC1CCN(c2nc3nn(-c4c(C)cc(C)cc4C)cc3c(=O)[nH]2)CC1 [Example 106],96
10,Cc1cc(C)c(-n2cc3c(=O)[nH]c(N4CC5C(C4)C5(F)F)nc3n2)c(C)c1 (stereo not drawn) [Example 114],27
11,Cc1cc(C)c(-n2cc3c(=O)[nH]c(N4CCC(CO)CC4)nc3n2)c(C)c1 [Example 115],35
12,Cc1cc(C)c(-n2cc3c(=O)[nH]c(N4CC5COCC5C4)nc3n2)c(C)c1 (stereo not drawn) [Example 117],46
13,Cc1cc(C)c(-n2cc3c(=O)[nH]c(N4CCC5(CC4)COC5)nc3n2)c(C)c1 [Example 118],44
14,C#Cc1ccc(-n2cc3c(=O)[nH]c(N4CCCC4)nc3n2)c(C)c1 [Example 119],16
15,CCc1ccc(-n2cc3c(=O)[nH]c(N4CCCC4)nc3n2)c(C)c1 [Example 120],19
16,Cc1nc(C(F)(F)F)ccc1-n1cc2c(=O)[nH]c(N3CCOCC3)nc2n1 [Example 121],540
17,Cc1cc(C(F)(F)F)cnc1-n1cc2c(=O)[nH]c(N3CCOCC3)nc2n1 [Example 122],180
18,Cc1cc(C(F)(F)F)cnc1-n1cc2c(=O)[nH]c(N3CC(F)(F)C3)nc2n1 [Example 123],140
19,Cc1cc(C2CC2)cc(C)c1-n1cc2c(=O)[nH]c(N3CCOCC3)nc2n1 [Example 124],3
20,Cc1ccc(-n2cc3c(=O)[nH]c(N4CCOCC4)nc3n2)c(C)c1 [Example 126],53
21,O=c1[nH]c(N2CCCC2)nc2nn(-c3ccc(Cl)cc3Cl)cc12 [Example 127],13
22,O=c1[nH]c(N2CCOCC2)nc2nn(-c3ccc(C(F)(F)F)cc3Cl)cc12 [Example 128],28
23,O=c1[nH]c(N2CCCOCC2)nc2nn(-c3ccc(C(F)(F)F)cc3Cl)cc12 [Example 129],35
24,CC(=O)c1cc(Br)ccc1-n1cc2c(=O)[nH]c(N3CCOCC3)nc2n1 [Example 131],63

# Same assay, conditions: IL-1β production in THP1-Null cells; test compound 0.0024 μM
row,SMILES,inhibition at 0.0024 µM [%]
1,Cc1cc(C2CC2)cc(C)c1-n1cc2c(=O)[nH]c(N3CCN(S(C)(=O)=O)CC3)nc2n1 [Example 125],52

# Same assay, conditions: IL-1β production in THP1-Null cells; test compound 0.024 μM
row,SMILES,inhibition at 0.024 µM [%]
1,"COc1nc(N2CCOCC2)nc2nn(-c3ccc(Br)cc3C)cc12 [Example 89, 4-(2-(4-bromo-2-methylphenyl)-4-methoxy-2H-pyrazolo[3,4-d]pyrimidin-6-yl)morpholine]",77

# Same assay, conditions: IL-1β production in THP1-Null cells; test compound 24 μM
row,SMILES,inhibition at 24 µM [%]
1,Cc1ccccc1-n1cc2c(=O)[nH]c(Nc3c4c(cc5c3CCC5)CCC4)nc2n1 [Example 44],21
